# Test results published in patent publication US12458678B2, “Composition for preventing or treating prostatic hyperplasia comprising mixed extracts of Curcumae radix and Syzygii flos” (UNIVERSITY-INDUSTRY COOPERATION GROUP OF KYUNG HEE …, priority 2019, dated 2025).
# What was measured:
# [1] = tested on: cyclin B1; experiment: Cyclin B1 expression in prostate tissue, Western blot; type: in vivo, Sprague-Dawley (SD) rats; conditions: Example 11.5, FIG. 15; comparison with finasteride
# [2] = tested on: proliferating cell nuclear antigen (PCNA); experiment: PCNA expression in prostate tissue, Western blot; type: in vivo, Sprague-Dawley (SD) rats; conditions: Example 11.4, FIG. 14; comparison with finasteride
# [3] = tested on: benign prostatic hyperplasia animal model; experiment: Prostate tissue weight and prostate index in TP-induced benign prostatic hyperplasia rats; type: in vivo, Sprague-Dawley (SD) rats; conditions: FIG. 2 upper
# Experimental: For the benign prostatic hyperplasia animal model, 12-week-old male Sprague-Dawley (SD) rats (200±20 g) were purchased and tested from Daehan Biolink (Eumseong, Korea). After an acclimatization period for 1 week before the start of the experiment, feed and water were freely ingested for 6 weeks during the experiment. In an environment in which the light was controlled at intervals of 12 hours, the indoor temperature was 23±2° C., and the humidity was maintained at 70%. To induce benign prostatic hyperplasia, rats were divided into four groups, and six animals were randomly assigned to each group. Three groups among them were injected with TP (5 mg/kg/day) into the groin for 4 weeks, and one group, a normal control group, was injected with the same amount of ethanol. After induction of benign prostatic hyperplasia for 4 weeks, the experiment was performed by various treatment as follows: (i) a normal control group injected with ethanol for an additional four weeks (NC group); (ii) a disease control group injected with TP for an additional four weeks (benign prostatic hyperplasia, BPH group); […] In addition, in order to correct the difference in tissue weight according to body weight, the prostate index was calculated by dividing the weight of the prostate in mg with respect to 100 g of body weight.
# [4] = tested on: prostate epithelial cells; experiment: H&E staining of prostate tissue, prostate epithelial cell thickness; type: in vivo, Sprague-Dawley (SD) rats; conditions: TP-induced BPH rats, FIG. 3B
# Experimental: To induce benign prostatic hyperplasia, rats were divided into four groups, and six animals were randomly assigned to each group. Three groups among them were injected with TP (5 mg/kg/day) into the groin for 4 weeks, and one group, a normal control group, was injected with the same amount of ethanol. After induction of benign prostatic hyperplasia for 4 weeks, the experiment was performed by various treatment as follows: (i) a normal control group injected with ethanol for an additional four weeks (NC group); (ii) a disease control group injected with TP for an additional four weeks (benign prostatic hyperplasia, BPH group); […] Prostate samples fixed in paraffin were cut to a thickness of 4 μm. […] Tissue sections were treated in 150 μl of 0.1% trypsin working solution (composition: trypsin 0.4 ml, calcium 0.01 g, chloride 0.01 g in D.W. 7 ml) for 15 minutes, and then blocked using fetal bovine serum (FBS). For H&E staining, the cut tissue was immersed in hematoxylin solution for 5 minutes, distilled water for 5 minutes, and eosin solution for 30 seconds, and then dried and fixed. The slides were observed using an Olympus IX71 Research Inverted Phase microscope (Olympus Co., Tokyo, Japan), and the density was measured using ImageJ 1.47v software (National Institute of Health, MD, USA).
# [5] = tested on: prostate specific antigen (PSA); experiment: Prostate specific antigen expression in prostate tissue, Western blot; type: in vivo, Sprague-Dawley (SD) rats; conditions: Example 11.2, FIG. 12; comparison with finasteride
# [6] = tested on: dihydrotestosterone (DHT); experiment: Dihydrotestosterone (DHT) assay by ELISA in BPH rats; type: in vivo, Sprague-Dawley (SD) rats; conditions: Example 11.1, FIG. 11; comparison with finasteride
# [7] = tested on: sperm count in the epididymis; experiment: Analysis of sperm count in epididymis; type: in vivo, SD rats; conditions: cauda epididymis of BPH rats; FIG. 17
# Experimental: After excision of cauda epididymis from […] SD rats, it was cut into small pieces twice. Then, they were immersed in 4 ml of PBS for 1 hour to cause the sperm to spread into the PBS solution. After mixing PBS containing sperm with the same amount of methanol, they were observed using a hematocytometer and an Olympus IX71 Research Inverted Phase microscope (Olympus Co., Tokyo, Japan).
# In order to check the sperm count, after excision of the cauda epididymis of the SD rat group used in the above-mentioned Examples, it was cut into small pieces twice. Then, they were placed in 4 ml of PBS for 1 hour to allow the sperm to spread into the PBS solution. After mixing PBS containing sperm with the same amount of methanol, they were observed using a hematocytometer and an Olympus IX71 Research Inverted Phase microscope.
structure (smiles),measurement,setting,value
CC(C)(C)NC(=O)[C@H]1CC[C@H]2[C@@H]3CC[C@H]4NC(=O)C=C[C@]4(C)[C@H]3CC[C@]12C [finasteride],cyclin B1 expression inhibited based on the BPH group,[1],41%
same,PCNA expression inhibited based on the BPH group,[2],45%
same,average prostate weight,"[3]; TP-induced BPH rats, UM-002 50 mg/kg/day or finasteride 1 mg/kg/day for 4 weeks, BPH group 1.73 g, NC group 0.73 g",0.93 g
same,prostate weight lower than that of the BPH group,[3]; vs BPH group 1.73 g,54%
same,thickness of prostate epithelial cells,"[4]; BPH group 12.06 μm, NC group 9.68 μm",9.38 μm
same,prostate epithelial cell thickness reduced compared to the BPH group,[4],22%
same,PSA expression inhibited based on the BPH group,[5],55%
same,DHT expression inhibited based on the BPH group,[6],77%
same,sperm count compared to the NC group,[7],56%
